Here are results for 17 compounds from US8748466B2, “Isoxazole derivatives useful as antibacterial agents” (Pfizer Inc., priority 2011, dated 2014).

By IC50 is commonly meant the concentration that gives 50% inhibition. For orientation: MIC means the lowest concentration found to suppress growth.

Test [1] addresses T1, Pseudomonas aeruginosa LpxC enzyme (Pseudomonas aeruginosa, UniProt P47205).
T1 construct: made in house; host or cells: E. coli
T1 sequence (P47205 1-303): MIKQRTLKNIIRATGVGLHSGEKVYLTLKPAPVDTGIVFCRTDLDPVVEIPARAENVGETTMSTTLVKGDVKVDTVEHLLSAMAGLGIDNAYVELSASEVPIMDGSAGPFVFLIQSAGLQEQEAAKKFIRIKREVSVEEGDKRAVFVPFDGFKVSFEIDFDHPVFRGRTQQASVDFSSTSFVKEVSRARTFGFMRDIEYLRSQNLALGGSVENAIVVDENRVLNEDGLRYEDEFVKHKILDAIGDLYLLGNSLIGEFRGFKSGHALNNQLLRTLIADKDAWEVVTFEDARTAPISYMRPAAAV
Description: LpxC enzyme IC50 assay (PA LpxC enzyme IC50), BioTrove RapidFire mass spectrometry. The test is classed as biochemical. The method, then: In order to assess the compounds biological activity selected in vitro assays were conducted on selected compounds. One of the assays measured the compounds ability to disrupt the synthesis of lipopolysaccharide, LPS, which is a component of the outer membrane of Gram-negative bacteria. Disruption of this synthesis is lethal to the bacteria. The assay determined the compound's ability to inhibit LpxC, which is the first enzyme in the biosynthetic pathway for LPS (measured as IC50). Additionally, MICs (minimal inhibitory concentrations) were determined for several bacteria. The specific protocols are described below:
A) IC50 Assay LpxC Enzyme from P. aeruginosa Labeled as PA LpxC Enzyme IC50):
At the end of 1 hour, 5 ul of 1 N HCl was added to stop the enzyme reaction, the plates were centrifuged, and then processed with the BioTrove Rapidfire HTMS Mass Spectrometry System. A no-enzyme control was used in calculating the IC50 values from the percent conversion values.

The test system of test [2] is Pseudomonas aeruginosa UC12120 (mouse virulent). Description: MIC determination (CLSI), PA-UC12120. The following applies: UC12120, read-out: PA-UC12120 MIC. In kind it is cell-based. The procedure: (§1) The in vitro antibacterial activity of compounds described in the Examples was evaluated by minimum inhibitory concentration (MIC) testing according to Clinical and Laboratory Standards Institute (CLSI). See: Clinical and Laboratory Standards Institute. Methods for Dilution Antimicrobial Susceptibility Tests for Bacteria that Grow Aerobically; Approved Standard-Eighth Edition. CLSI document M7-A8 [ISBN 1-56238-689-1]. Clinical and Laboratory Standards Institute, 940 West Valley Road, Suite 1400, Wayne, Pa. 19087-1898 USA, 2006; also Clinical and Laboratory Standards Institute. Performance Standards for Antimicrobial Susceptibility Testing; Twentieth Informational Supplement. CLSI document M100-S20 [ISBN1-56238-716-2]. Clinical and Laboratory Standards Institute.
(§2) The MIC determination is a standard laboratory method for evaluating the antibacterial activity of a compound. The MIC represents the lowest drug concentration that inhibits visible growth of bacteria following overnight incubation. […] Typically, the drug concentration range is broken down into 2-fold increments (e.g., 0.06 μg/mL, 0.12 μg/mL. 0.25 μg/mL, 0.50 μg/mL, 1.0 μg/mL, etc.) and the various drug concentrations are all individually incubated overnight with approximately the same number of bacteria. The MIC is then determined by visually inspecting the drug effect at each concentration, and identifying the lowest drug concentration that has inhibited bacterial growth as compared to the drug free control. Typically, bacteria continue to grow at drug concentrations lower than the MIC and don't grow at concentrations at and above the MIC.
(§3) The MIC values described in Tables 4 and 5 below were derived from assays wherein each test compound was evaluated in duplicate. In cases where the duplicate values varied by 0-2-fold, the lower of the two values was reported below. Generally speaking, if the duplicate values varied by more than 2-fold, the assay was considered non-valid and was repeated until the variation between duplicate runs was 2-fold. In line with the CLSI guidelines referred to above, both control organisms and reference compounds were utilized in each MIC assay to provide proper quality control. MIC values generated with these control organisms and reference compounds were required to fall within a defined range for the assay to be considered valid and be included herein. Those skilled in the art will recognize that MIC values can and do vary from experiment to experiment. Generally speaking, it should be recognized that MIC values often vary +/−2-fold from experiment to experiment. While a single MIC is reported for each compound and each microorganism, the reader should not conclude that each compound was only tested once. Several of the compounds were subjected to multiple tests. The data reported in Tables 4 and 5 is reflective of the compound's relative activity and different MICs may have been generated on these occasions in line with the guidelines described above.
(§4) The following bacterial strains were used in these MIC determinations:
1) Pseudomonas aeruginosa UC12120 (mouse virulent) labeled as PA-UC12120 in Tables 4 and 5;

The test system of test [3] is Escherichia coli EC-1: VOGEL, mouse virulent. The test is described as follows: MIC determination (CLSI), EC-1. The test is classed as cell-based. The following applies: read-out: EC-1 MIC. The method, then:
as §1, §2, §3, §4
2) Escherichia coli EC-1: VOGEL, mouse virulent labeled as EC-1 in Tables 4 and 5;

For test [4], the system named is Acinetobacter baumannii/haemolyticus: Multidrug-resistant clinical isolate AB-3167. The test is described as follows: MIC determination (CLSI), AB-3167. The following applies: overnight incubation, duplicate, lower of the two values reported. The test is classed as cell-based. The procedure:
as §1, §2, §3, §4
3) Acinetobacter baumannii/haemolyticus: Multidrug-resistant clinical isolate labeled as AB-3167 in Tables 4 and 5;

The mark [5] stands for this setting: P. aeruginosa LpxC enzyme 0.1 nM, 25° C., 1 hour, pH 8.0, read-out: PA:IC50.

Converted amounts (≈) assume the structure as drawn. Read-outs that look alike come from different tables or passages of the source.

Consider `CC(CCc1cc(-c2ccc3ccccc3n2)no1)(C(=O)NO)S(C)(=O)=O` (racemic) [Example 35, N-hydroxy-2-methyl-2-(methylsulfonyl)-4-(3-quinolin-2-ylisoxazol-5-yl)butanamide], for which the IC50 in test [1] (setting [5]) came out at 22.1 nM. Moreover, the MIC was 8 µg/mL (≈ 20.5 µM) in test [2], 32 µg/mL (≈ 82.2 µM) in test [3] and greater than 64 µg/mL in test [4].

Regarding `CC(CCc1cc(CCc2ccccc2)no1)(C(=O)NO)S(C)(=O)=O` (racemic) [Example 39, N-hydroxy-2-methyl-2-(methylsulfonyl)-4-[3-(2-phenylethyl)isoxazol-5-yl]butanamide], the half-maximal inhibitory concentration (IC50) in test [1] (setting [5]) worked out at 9.8 nM. The minimal inhibitory concentration (MIC) is 4 µg/mL (≈ 10.9 µM) in test [2], 32 µg/mL (≈ 87.3 µM) in test [3] and greater than 64 µg/mL in test [4].

With `CC(CCc1cc(-c2ccc3c(c2)OCO3)no1)(C(=O)NO)S(C)(=O)=O` (racemic) [Example 33, 4-[3-(1,3-benzodioxol-5-yl)isoxazol-5-yl]-N-hydroxy-2-methyl-2-(methylsulfonyl)butanamide], in test [1] (setting [5]), the IC50 was 5.1 nM. For the same compound, the minimum inhibitory concentration (MIC) in test [2] is 2 µg/mL (≈ 5.23 µM); in test [3], 16 µg/mL (≈ 41.8 µM); in test [4], greater than 64 µg/mL.

On to `CCOC(C)(C)c1cc(CCC(C)(C(=O)NO)S(C)(=O)=O)on1` (racemic) [Example 31, 4-[3-(1-ethoxy-1-methylethyl)isoxazol-5-yl]-N-hydroxy-2-methyl-2-(methylsulfonyl)butanamide], for which the IC50 in test [1] (setting [5]) is greater than 100 nM. Besides, the MIC in test [2], in test [3] and in test [4] was greater than 64 µg/mL throughout.

As for `COc1ccccc1-c1cc(CCC(C)(C(=O)NO)S(C)(=O)=O)no1` (racemic) [Example 16, N-hydroxy-4-[5-(2-methoxyphenyl)isoxazol-3-yl]-2-methyl-2-(methylsulfonyl)butanamide], the IC50 in test [1] (setting [5]) amounted to 40.5 nM. Moreover, the minimal inhibitory concentration (MIC) in test [2] is 16 µg/mL (≈ 43.4 µM); in test [3] it was greater than 64 µg/mL; in test [4], greater than 64 µg/mL.

`CC(CCc1cc(-c2ccc(F)cc2)no1)(C(=O)NO)S(C)(=O)=O` (racemic) [Example 44, 4-[3-(4-fluorophenyl)isoxazol-5-yl]-N-hydroxy-2-methyl-2-(methylsulfonyl)butanamide]: in test [1] (setting [5]), the concentration for half-maximal inhibition (IC50) stood at 3.8 nM. Moreover, the figures for the minimal inhibitory concentration (MIC) in test [2], in test [3] and in test [4] were 1 µg/mL (≈ 2.81 µM), 16 µg/mL (≈ 44.9 µM) and greater than 64 µg/mL, respectively.

On to `COc1cccc(OC)c1-c1cc(CCC(C)(C(=O)NO)S(C)(=O)=O)on1` (racemic) [Example 32, 4-[3-(2,6-dimethoxyphenyl)isoxazol-5-yl]-N-hydroxy-2-methyl-2-(methylsulfonyl)butanamide], for which the IC50 in test [1] (setting [5]) worked out at 88.7 nM. The minimum inhibitory concentration (MIC) in test [2], in test [3] and in test [4] was greater than 64 µg/mL in each case.

With `Cc1cc(-c2cc(CCC(C)(C(=O)NO)S(C)(=O)=O)no2)ccc1OC(F)F` (racemic) [Example 22, 4-{5-[4-(difluoromethoxy)-3-methylphenyl]isoxazol-3-yl}-N-hydroxy-2-methyl-2-(methylsulfonyl)butanamide], the IC50 in test [1] (setting [5]) was 1.5 nM. For the same compound, the MIC was 1 µg/mL (≈ 2.39 µM) in test [2], 8 µg/mL (≈ 19.1 µM) in test [3] and greater than 64 µg/mL in test [4].

For `CC(CCc1cc(CNS(=O)(=O)c2ccc(F)cc2)on1)(C(=O)NO)S(C)(=O)=O` (racemic) [Example 27, 4-[5-({[(4-fluorophenyl)sulfonyl]amino}methyl)isoxazol-3-yl]-N-hydroxy-2-methyl-2-(methylsulfonyl)butanamide], the half-inhibitory concentration (IC50) in test [1] (setting [5]) is greater than 100 nM. For the same compound, the minimum inhibitory concentration (MIC) in test [2], in test [3] and in test [4] was greater than 64 µg/mL in each case.

Take `CC(CCc1cc(-c2cccc(F)c2)no1)(C(=O)NO)S(C)(=O)=O` (racemic) [Example 34, 4-[3-(3-fluorophenyl)isoxazol-5-yl]-N-hydroxy-2-methyl-2-(methylsulfonyl)butanamide]: the IC50 in test [1] (setting [5]) stood at 9.3 nM. Further, the MIC in test [2] was 2 µg/mL (≈ 5.61 µM); in test [3], 32 µg/mL (≈ 89.8 µM); in test [4], greater than 64 µg/mL.

Take `COc1cccc(-c2cc(CC[C@](C)(C(=O)NO)S(C)(=O)=O)on2)c1F` [Example 1, (2R)-4-[3-(2-Fluoro-3-methoxyphenyl)isoxazol-5-yl]-N-hydroxy-2-methyl-2-(methylsulfonyl)butanamide]: the 50% inhibitory concentration (IC50) in test [1] stood at 5.32 nM. Besides, the MIC in test [2] is 2 µg/mL (≈ 5.18 µM); in test [3], 4 µg/mL (≈ 10.4 µM); in test [4] it was greater than 64 µg/mL.

Turning to `CC(CCc1cc(-c2ccccc2F)on1)(C(=O)NO)S(C)(=O)=O` (racemic) [Example 8, 4-[5-(2-fluorophenyl)isoxazol-3-yl]-N-hydroxy-2-methyl-2-(methylsulfonyl)butanamide], the IC50 in test [1] was determined as 8.3 nM. In addition, the MIC in test [2] is 1 µg/mL (≈ 2.81 µM); in test [3] it was 16 µg/mL (≈ 44.9 µM); in test [4], greater than 64 µg/mL.

Regarding `CC(CCc1cc(-c2ccncc2F)no1)(C(=O)NO)S(C)(=O)=O` (racemic) [Example 37, 4-[3-(3-fluoropyridin-4-yl)isoxazol-5-yl]-N-hydroxy-2-methyl-2-(methylsulfonyl)butanamide], in test [1] (setting [5]), the half-maximal inhibitory concentration (IC50) worked out at 52.4 nM. In addition, the minimum inhibitory concentration (MIC) is 16 µg/mL (≈ 44.8 µM) in test [2], greater than 64 µg/mL in test [3] and greater than 64 µg/mL in test [4].

For `COc1ccccc1-c1cc(CCC(C)(C(=O)NO)S(C)(=O)=O)on1` (racemic) [Example 49, N-hydroxy-4-[3-(2-methoxyphenyl)isoxazol-5-yl]-2-methyl-2-(methylsulfonyl)butanamide], in test [1] (setting [5]), the IC50 is 42.4 nM. Further, the minimal inhibitory concentration (MIC) in test [2] was 32 µg/mL (≈ 86.9 µM); in test [3], greater than 64 µg/mL; in test [4], greater than 64 µg/mL.

`COc1ccc(-c2cc(CC[C@](C)(C(=O)NO)S(C)(=O)=O)on2)c(F)c1` [Example 3, (2R)-4-[3-(2-fluoro-4-methoxyphenyl)isoxazol-5-yl]-N-hydroxy-2-methyl-2-(methylsulfonyl)butanamide]: the IC50 in test [1] came out at 4.4 nM. Besides, the minimal inhibitory concentration (MIC) in test [2] is 0.5 µg/mL (≈ 1.29 µM); in test [3], 4 µg/mL (≈ 10.4 µM); in test [4], greater than 64 µg/mL.

With `CC(CCc1cc(CC2(O)CCCCC2)on1)(C(=O)NO)S(C)(=O)=O` (racemic) [Example 17, N-hydroxy-4-{5-[(1-hydroxycyclohexyl)methyl]isoxazol-3-yl}-2-methyl-2-(methylsulfonyl)butanamide], in test [1] (setting [5]), the IC50 was greater than 100 nM. Also, the minimal inhibitory concentration (MIC) in test [2], in test [3] and in test [4] was greater than 64 µg/mL throughout.

`COc1ccccc1OCc1cc(CCC(C)(C(=O)NO)S(C)(=O)=O)no1` (racemic) [Example 12, N-hydroxy-4-{5-[(2-methoxyphenoxy)methyl]isoxazol-3-yl}-2-methyl-2-(methylsulfonyl)butanamide]: the IC50 in test [1] (setting [5]) is 37.4 nM. For the same compound, the minimum inhibitory concentration (MIC) in test [2], in test [3] and in test [4] was greater than 64 µg/mL each time.
